# Measurements: US20050172344A1, “Cell cultures from animal models of Alzheimer's disease for screening and testing drug efficacy” (priority 2002, published 2005)
# Tests used:
# Assay type in all cases: cell-based, mouse
# [1] = test system: cultured murine hippocampal neurons; assay: evoked EPSCs and tetanus-induced potentiation in cultured neurons; settings: for effect on EPSC amplitude (in words): evoked EPSCs, FIG. 2B
# [2] = test system: cultured hippocampal neurons from double transgenic mAPP/mPS1 mice; assay: basal mEPSC frequency (spontaneous neurotransmitter release), whole cell patch clamp, mAPP/mPS1 cultures
# [3] = test system: cultured hippocampal neurons from WT mice; assay: basal mEPSC frequency (spontaneous neurotransmitter release), whole cell patch clamp, WT cultures
# [4] = test system: cultured hippocampal neurons from double transgenic mAPP/mPS1 mice; assay: glutamate-induced enhancement of mEPSC frequency (synaptic plasticity), mAPP/mPS1 cultures
# [5] = test system: cultured hippocampal neurons from WT mice; assay: immunocytochemistry: synapsin I- and synaptophysin-immunoreactive puncta, WT cultures
# Procedure: Glutamate in Mg^2+-free bath solution, or normal bath solution (control) was added directly to the culture dish and washed out after approximately 1 min by exchanging the solution with phosphate-buffered saline (PBS), (pH 7.4) 2 times. The cultures were fixed starting approximately 30 min after the application of glutamate, or control solution. The cultures were incubated overnight with affinity-purified rabbit anti-synapsin I (Molecular Probes) diluted 1:200. The secondary antibody was goat anti-rabbit labeled with Rhodamin Red diluted 1:500 in 4% goat serum in PBS. Cells were mounted in Vectashield (Vector Labs) and examined by confocal microscope (Nikon D-Eclipse C1). The cells were excited using the 568 nm lines of a krypton-argon laser to image Cy3. Kalman averages of 4 scans were collected for each image. Ten neurons in each culture dish were selected at random and analyzed by an observer who was blind to the experimental treatment. Fields with roughly equal densities of neurites were chosen for analysis. Synapsin I clusters in a representative field (94×142 μm) around the neuron were quantified using a computer program NIH Image (v. 1.61). Individual clusters were identified based on having a fluorescence intensity that exceeded a threshold set above background and a diameter between 0.5 and 5 μm. For all measures, the mean result from the 10 neurons in the dish was normalized to the mean from control dishes in the same culture batch because variability between different culture batches was greater than between dishes in the same batch. FIG. 7 illustrates the effects of glutamate on the number of synapsin I-immunoreactive clusters in WT and mAPP/mPS1 cell cultures. Synapsin I-immunoreactive clusters are more numerous in glutamate-exposed than control cell WT cultures (FIGS. 7A, 7B).
# In light of the microstructural changes involving synapsin I and synaptophysin in cultures from transgenic animals, we also tested whether these changes could be induced by the exogenous application of Aβ. […] We next tested whether the number of synapsin I- and synaptophysin-immunoreactive puncta was increased after glutamate application in Aβ-treated cultures. […] These findings indicate that Aβ can produce coordinate changes in the distribution and/or expression of presynaptic proteins.
# Aβ preparation: Oligomeric Aβ42 was prepared as previously described (Stine et al., 2003). Briefly, the lyophilized peptide (American Peptide) was re-suspended in 100% 1,1,1,3,3,3-hexafluoro-2-propanol (HFIP; Sigma). The solution was aliquoted and the HFIP was allowed to evaporate in the fume hood. The resulting clear peptide films were dried under vacuum in a SpeedVac and stored at −20° C. Twenty-four hours prior to use, the aliquots were added dimethylsulfoxide (DMSO) (Sigma) and sonicated for 10 minutes. Oligomeric Aβ42 was obtained by diluting Aβ42-DMSO into cell culture media, vortexed for 30 seconds and incubated at 4° C. for 24 hours until the use. To induce plasticity 200 μM glutamate in a Mg^2+-free solution was added for ˜30 sec.
# [6] = test system: cultured hippocampal neurons from WT mice; assay: FM 1-43 vesicle cycling: number of active presynaptic boutons, WT cultures
# Description: Cationic styrylpyridinium dye FM 1-43 has become an established tool for identifying actively firing neurons and for investigating the mechanisms of activity-dependent vesicle cycling in widely different species. These water soluble dyes, which are non-toxic to cells virtually nonfluorescent in aqueous medium, become internalized within recycled synaptic vesicles and the nerve terminals become brightly stained. The amount of FM 1-43 taken up per vesicle by endocytosis equals the amount of dye released upon exocytosis.
# One of the methods to induce exocytosis/endocytosis in the neuronal culture is by perfusion of the hyperkalemic solution. […] The perfusion solution is then changed back to normal bath solution for 10 minutes to wash off the dye from the external medium. ADVASEP-7 (1 mM, CyDex, Inc., Overland Park, Kans.), an anionic cyclodextrin complexing agent is introduced for 60 seconds in the washing bath solution at 1 and 6 minutes of washing for enhanced removal of the dye from the external medium (FIG. 6A). After 10 min wash period, which is sufficient for the complete recycling and repriming of the dye-stained population of synaptic vesicles, an image was then taken to record the loading of FM 1-43 in the synaptic boutons. The culture is then exposed to multiple 15 seconds application of hyperkalemic bath solution (without FM 1-43) to evoke repeated cycles of exocytosis, which facilitate release of the dye from the vesicles. An image is taken after 30 minutes of repeated cycles of exocytosis and washing with normal bath solution. The difference between the images before and after multiple exposures to hyperkalemic solution gives the measure of FM 1-43 stained vesicles.
# To study glutamate-induced presynaptic plasticity changes, the culture is exposed to glutamate (200 μM) in Mg^2+ free bath solution for 30 seconds and then washed out in approximately 1 minute. After 30 minutes of glutamate exposure, the staining and destaining procedure is repeated. NMDA receptor antagonist, d-AP5 (40 μM) and non-NMDA receptor antagonist, CNQX (20 μM) are included in the hyperkalemic solution to block possible recurrent excitation and induction of activity-dependent plasticity. All images were acquired using Nikon D-Eclipse C1 confocal microscope. Cultures were viewed with 60×/1.2 nA water immersion objective. An investigator blinded to experimental conditions obtained quantitative data using NIH Image (v. 1.61). For each image, the intensity of individual puncta and total number of puncta was assessed. FIG. 6B illustrates exemplary cycling vesicles before and after glutamate exposure in cell cultures from wild type (WT) and mAPP/mPS1 littermates. A brief application of glutamate produces enhancement of cycling vesicles in WT but not mAPP/mPS1 cell cultures (FIG. 6C).
# Another finding on cell cultures from transgenic mouse models of Alzheimer's disease is represented by the increase in basal number of functional presynaptic release sites as well as the lack of the glutamate-induced increase in number of functional presynaptic release sites. These tests were performed using FM 1-43. Therefore, we also tested whether these phenomena occurred in non transgenic cultures following exposure to exogenous oligomeric Aβ. […] Brief application (˜30 sec) of 200 μM glutamate in Mg^2+ free medium caused a significant increase in number of active boutons in cultures from vehicle-treated WT animals (269.70±33.12%, n=6, p<0.001, one way ANOVA) ) (FIG. 12B). […]
# [7] = test system: cultured hippocampal neurons from WT mice; assay: glutamate-induced increase of mEPSC frequency, WT cultures
# [8] = Aβ42-treated cultures fixed 30 minutes after 200 μM glutamate application
# [9] = WT cultures, 200 pM oligomeric Aβ42 for 24 hours vs vehicle-treated
molecule,measurement,setting,value
N[C@@H](CCCP(=O)(O)O)C(=O)O [APV],effect on potentiation of EPSC by high frequency stimulation (in words),"[1]; 100 Hz tetani, extracellular application, FIG. 2C",blocked
same,effect on EPSC amplitude (in words),[1],reduces the amplitude of the EPSCs
N#Cc1cc2[nH]c(=O)c(=O)[nH]c2cc1[N+](=O)[O-] [CNQX],effect on EPSC amplitude (in words),[1],blocks the remaining part of the EPSC
CC(C)C[C@H](NC(=O)[C@H]1O[C@@H]1C(=O)O)C(=O)NCCCCN=C(N)N [E64],basal mEPSC frequency,[2]; mAPP/mPS1 cultures treated with E64 1 μM added daily to culture medium,435 events/minute
same,effect on basal mEPSC frequency (in words),"[2]; mAPP/mPS1 cultures, E64 for 3 to 4 days, FIG. 4",re-established normal mEPSC frequency
same,basal mEPSC frequency,[3]; WT cultures treated with E64 1 μM added daily,332 events/minute
same,mEPSC frequency after glutamate (synaptic plasticity),"[4]; mAPP/mPS1 cultures treated with E64, 45 minutes after application of glutamate, n=6",346.44±41%
same,effect on synaptic plasticity (in words),"[4]; mAPP/mPS1 cultures, glutamate-induced mEPSC enhancement, FIG. 5",re-established normal synaptic plasticity
"oligomeric Aβ42: lyophilized β-amyloid 42 peptide (American Peptide) treated with HFIP and DMSO, then diluted into culture media to form oligomers",number of synapsin I-immunoreactive puncta after glutamate,[5]; [8],111.55±8.97%
same,number of synaptophysin-immunoreactive puncta after glutamate,[5]; [8],115.48±5.76%
same,effect on basal number of synapsin I- and synaptophysin-immunoreactive puncta (in words),[5]; FIG. 13A,increases
same,effect on glutamate-induced increase in synapsin I- and synaptophysin-immunoreactive puncta (in words),[5]; FIG. 13B,blocks
same,basal number of synapsin I immunoreactive puncta,[5]; [9],1155.53±6.78 % of control
same,basal number of synaptophysin immunoreactive puncta,[5]; [9],146.13±6.15%
same,mean fluorescence intensity of the labeled boutons (in words),[6]; Aβ-treated cultures,did not find any change
same,number of active boutons after glutamate,"[6]; Aβ-treated cultures, ~30 sec 200 μM glutamate in Mg2+ free medium, n=8",86.80±4.6 % increase
same,effect on basal number of active presynaptic boutons (in words),[6]; FIG. 12A,increases
same,effect on glutamate-induced increase in the number of active boutons (in words),[6]; FIG. 12B,blocks
same,basal number of active boutons,"[6]; WT cultures treated for 24 hrs with Aβ42, n=15",38.15±3.6 boutons/unit length of neurite
same,effect on glutamate-induced mEPSC frequency increase (in words),[7]; FIG. 11B,blocks
same,mEPSC frequency after glutamate,"[7]; WT cultures, 200 pM Aβ42 for 24 hours, 45 min after 200 μM glutamate, n=10",104.43±3.05 % of pre values
same,basal mEPSC frequency with vehicle added instead of glutamate,"[7]; WT cultures, Aβ-treated, vehicle instead of glutamate, n=8",112.00±11.34 % of pre values
same,mEPSC amplitude after glutamate treatment (in words),[7]; cultures treated with Aβ,did not produce any change
same,effect on basal frequency of spontaneous release of neurotransmitter (in words),[3]; FIG. 11A,increases
same,mEPSC amplitude vs vehicle-treated cultures (in words),"[3]; WT cultures, 200 pM oligomeric Aβ42 for 24 hours",did not find any difference
same,basal frequency of spontaneous release of neurotransmitter,"[3]; WT cultures, 200 pM oligomeric Aβ42 for 24 hours, n=8",671.46 ± 48.28 min⁻¹
